Results from PubChem BioAssay (NCI).
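How tested: cells in 96-well plates exposed to compound for 48 hours at five concentrations. GI50 marks 50% less growth. TGI is the concentration that stops growth completely.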

Experiments:
Test in all cases: NCI-60 cell line screen, 48 h
[1] = test system: 786-0 renal
[2] = test system: A498 renal
[3] = test system: ACHN renal
[4] = test system: BT-549 breast
[5] = test system: CAKI-1 renal
[6] = test system: CCRF-CEM leukemia
[7] = test system: COLO 205 colon
[8] = test system: DU-145 prostate
[9] = test system: EKVX NSCLC
[10] = test system: HCT-116 colon
[11] = test system: HCT-15 colon
[12] = test system: HOP-62 NSCLC
[13] = test system: HOP-92 NSCLC
[14] = test system: HS 578T breast
[15] = test system: HT29 colon
[16] = test system: IGROV1 ovarian
[17] = test system: K-562 leukemia
[18] = test system: KM12 colon
[19] = test system: LOX IMVI melanoma
[20] = test system: M14 melanoma
[21] = test system: MALME-3M melanoma
[22] = test system: MCF7 breast
[23] = test system: MDA-MB-231 breast
[24] = test system: MDA-MB-435
[25] = test system: MOLT-4 leukemia
[26] = test system: NCI-H226 lung
[27] = test system: NCI-H23 lung
[28] = test system: NCI-H460 lung
[29] = test system: NCI-H522 lung
[30] = test system: NCI/ADR-RES ovarian
[31] = test system: OVCAR-3 ovarian
[32] = test system: OVCAR-4 ovarian
[33] = test system: OVCAR-5 ovarian
[34] = test system: PC-3 prostate
[35] = test system: RPMI-8226 leukemia
[36] = test system: RXF 393 renal
[37] = test system: SF-268 CNS
[38] = test system: SF-295 CNS
[39] = test system: SF-539 CNS
[40] = test system: SK-MEL-2 melanoma
[41] = test system: SK-MEL-28 melanoma
[42] = test system: SK-MEL-5 melanoma
[43] = test system: SK-OV-3 ovarian
[44] = test system: SN12C renal
[45] = test system: SNB-19 CNS
[46] = test system: SNB-75 CNS
[47] = test system: SW-620 colon
[48] = test system: T-47D breast
[49] = test system: TK-10 renal
[50] = test system: U251 CNS
[51] = test system: UACC-62 melanoma
[52] = test system: UO-31 renal
[53] = test system: A549 NSCLC
[54] = test system: HCC-2998 colon
[55] = test system: OVCAR-8 ovarian
[56] = test system: UACC-257 melanoma

CO[C@@H]1[C@H](O)CC[C@]2(CO2)[C@H]1[C@@]1(C)O[C@@H]1CC=C(C)C
TGI [1]: > 200 µM | TGI [2]: > 200 µM | TGI [3]: > 200 µM | TGI [4]: > 200 µM | TGI [5]: > 200 µM | TGI [6]: > 200 µM | TGI [7]: > 200 µM | TGI [8]: > 200 µM | TGI [9]: > 200 µM | TGI [10]: > 200 µM | TGI [11]: > 200 µM | TGI [12]: > 200 µM | TGI [13]: > 200 µM | TGI [14]: > 200 µM | TGI [15]: > 200 µM | TGI [16]: > 200 µM | TGI [17]: > 200 µM | TGI [18]: > 200 µM | TGI [19]: > 200 µM | TGI [20]: > 200 µM | TGI [21]: > 200 µM | TGI [22]: > 200 µM | TGI [23]: > 200 µM | TGI [24]: > 200 µM | TGI [25]: > 200 µM | TGI [26]: > 200 µM | TGI [27]: > 200 µM | TGI [28]: > 200 µM | TGI [29]: > 200 µM | TGI [30]: > 200 µM | TGI [31]: > 200 µM | TGI [32]: > 200 µM | TGI [33]: > 200 µM | TGI [34]: > 200 µM | TGI [35]: > 200 µM | TGI [36]: > 200 µM | TGI [37]: > 200 µM | TGI [38]: > 200 µM | TGI [39]: > 200 µM | TGI [40]: > 200 µM | TGI [41]: > 200 µM | TGI [42]: > 200 µM | TGI [43]: > 200 µM | TGI [44]: > 200 µM | TGI [45]: > 200 µM | TGI [46]: > 200 µM | TGI [47]: > 200 µM | TGI [48]: > 200 µM | TGI [49]: > 200 µM | TGI [50]: > 200 µM | TGI [51]: > 200 µM | TGI [52]: > 200 µM

O=C1CS/C(=N/S(=O)(=O)c2ccc(N3N=C4c5ccccc5CC4C3c3cccs3)cc2)N(c2ccccc2)C1 (stereo not drawn)
GI50 [1]: 22.1 µM | TGI [1]: > 100 µM | GI50 [53]: 47.2 µM | TGI [53]: > 100 µM | GI50 [3]: 22.1 µM | TGI [3]: 78.7 µM | GI50 [4]: 21.4 µM | TGI [4]: > 100 µM | GI50 [5]: 74.5 µM | TGI [5]: > 100 µM | GI50 [6]: 36.8 µM | TGI [6]: > 100 µM | GI50 [7]: 57.2 µM | TGI [7]: > 100 µM | GI50 [8]: 30.7 µM | TGI [8]: > 100 µM | GI50 [9]: 39.5 µM | TGI [9]: > 100 µM | GI50 [54]: 20.5 µM | TGI [54]: 48.5 µM | GI50 [10]: 12.5 µM | TGI [10]: 27.4 µM | GI50 [11]: 35.5 µM | TGI [11]: > 100 µM | GI50 [12]: 17.4 µM | TGI [12]: 49.2 µM | GI50 [13]: 79.9 µM | TGI [13]: > 100 µM | GI50 [14]: 20.5 µM | TGI [14]: 83.7 µM | GI50 [15]: 61 µM | TGI [15]: > 100 µM | GI50 [16]: 19.5 µM | TGI [16]: > 100 µM | GI50 [17]: 10.3 µM | TGI [17]: 93.5 µM | GI50 [18]: 28.4 µM | TGI [18]: 88.4 µM | GI50 [19]: 21.2 µM | TGI [19]: 51 µM | GI50 [20]: 39.1 µM | TGI [20]: > 100 µM | GI50 [22]: 88.8 µM | TGI [22]: > 100 µM | GI50 [23]: 21.4 µM | TGI [23]: 84.8 µM | GI50 [24]: 29.5 µM | TGI [24]: > 100 µM | GI50 [25]: 0.0146 µM | TGI [25]: 34.8 µM | GI50 [26]: 22.3 µM | TGI [26]: 93.8 µM | GI50 [27]: 24.2 µM | TGI [27]: 63.5 µM | GI50 [28]: > 100 µM | TGI [28]: > 100 µM | GI50 [29]: 23.8 µM | TGI [29]: > 100 µM | GI50 [30]: > 100 µM | TGI [30]: > 100 µM | GI50 [31]: > 100 µM | TGI [31]: > 100 µM | GI50 [32]: > 100 µM | TGI [32]: > 100 µM | GI50 [33]: 34.6 µM | TGI [33]: > 100 µM | GI50 [55]: 25.4 µM | TGI [55]: > 100 µM | GI50 [34]: 45 µM | TGI [34]: > 100 µM | GI50 [35]: 31 µM | TGI [35]: > 100 µM | GI50 [36]: 41 µM | TGI [36]: > 100 µM | GI50 [37]: > 100 µM | TGI [37]: > 100 µM | GI50 [38]: 32.7 µM | TGI [38]: > 100 µM | GI50 [39]: 27.8 µM | TGI [39]: 99.2 µM | GI50 [40]: 60.2 µM | TGI [40]: > 100 µM | GI50 [41]: > 100 µM | TGI [41]: > 100 µM | GI50 [42]: 38.2 µM | TGI [42]: > 100 µM | GI50 [43]: > 100 µM | TGI [43]: > 100 µM | GI50 [44]: 34.3 µM | TGI [44]: > 100 µM | GI50 [45]: 55.7 µM | TGI [45]: > 100 µM | GI50 [46]: > 100 µM | TGI [46]: > 100 µM | GI50 [47]: 45.2 µM | TGI [47]: > 100 µM | GI50 [48]: 69.2 µM | TGI [48]: > 100 µM | GI50 [50]: 28 µM | TGI [50]: > 100 µM | GI50 [56]: 42.3 µM | TGI [56]: > 100 µM | GI50 [51]: 16.1 µM | TGI [51]: 38.9 µM | GI50 [52]: 69.3 µM | TGI [52]: > 100 µM
